Data: the NIST ThermoML archive (doi:10.1021/acs.jced.5b00367)

What was measured:
[1] = Crystal; visual observation
[2] = mn = molality of the nth substance listed, in mol/kg; settings: 303.15 K, 100 kPa, Liquid, Alternating current cell with electrodes
[3] = wn = mass fraction of the nth substance listed; settings: 101 kPa, Liquid, Alternating current cell with electrodes, w1 = 0.01

CCCCCCCCCCCCCCCC[N+](C)(C)CC[N+](C)(C)CCCCCCCCCCCCCCCC.[Br-].[Br-]
Settings	Normal melting temperature [°C]
[1]	175.00

CCCCCCCCCCCCCCCC[N+](C)(C)CC[N+](C)(C)CCCCCCCCCCCCCCCC.[Br-].[Br-] + O
[2]
Settings	electrical conductivity [S/m]
m1 = 5e-06	0.00031
m1 = 1e-05	0.0004
m1 = 1.5e-05	0.00049
m1 = 2e-05	0.00058
m1 = 2.5e-05	0.00065
m1 = 3e-05	0.00073
m1 = 3.5e-05	0.0008
m1 = 4e-05	0.00082
m1 = 5e-05	0.00086
m1 = 6e-05	0.00088

CCCCCCCCCCCC[N+](C)(C)CC[N+](C)(C)CCCCCCCCCCCC.[Br-].[Br-] [1,2-bis(dimethyldodecylammonium)ethane dibromide]
Settings	Normal melting temperature [°C]
[1]	157.00

CCCCCCCCCCCC[N+](C)(C)CC[N+](C)(C)CCCCCCCCCCCC.[Br-].[Br-] [1,2-bis(dimethyldodecylammonium)ethane dibromide] + O
Settings	electrical conductivity [S/m]
[2], m1 = 0.000201	0.00422
[2], m1 = 0.000301	0.00612
[2], m1 = 0.000402	0.00816
[2], m1 = 0.000503	0.00967
[2], m1 = 0.000603	0.012
[2], m1 = 0.000703	0.0133
[2], m1 = 0.000803	0.0162
[2], m1 = 0.001206	0.0197
[2], m1 = 0.001407	0.0205
[2], m1 = 0.001608	0.0212
[2], m1 = 0.001809	0.022
[2], m1 = 0.00201	0.0226
[2], m1 = 0.002211	0.0231
[3], 275.15 K	0.0196
[3], 276.25 K	0.0196
[3], 277.35 K	0.0196
[3], 278.15 K	0.0196
[3], 279.45 K	0.0197
[3], 280.25 K	0.0197
[3], 281.35 K	0.0197
[3], 282.15 K	0.0197
[3], 283.15 K	0.0198
[3], 284.25 K	0.0198
[3], 285.15 K	0.0198
[3], 285.65 K	0.0198
[3], 286.15 K	0.0199
[3], 288.15 K	0.0202
[3], 289.15 K	0.0203
[3], 290.15 K	0.0204
[3], 291.15 K	0.0205
[3], 292.15 K	0.0206
[3], 293.15 K	0.021
[3], 295.75 K	0.0212
[3], 298.15 K	0.0215
[3], 299.65 K	0.0218
[3], 301.65 K	0.022
[3], 303.45 K	0.0222
[3], 305.75 K	0.0225
[3], 308.15 K	0.0228
[3], 310.25 K	0.0229
[3], 311.15 K	0.023
[3], 313.15 K	0.0232
[3], 315.15 K	0.0235
[3], 317.95 K	0.0237
[3], 318.15 K	0.024
[3], 320.55 K	0.0242
[3], 323.15 K	0.0244
[3], 325.55 K	0.0245
[3], 327.15 K	0.0248
[3], 329.35 K	0.0249
[3], 331.55 K	0.025
[3], 334.15 K	0.0252
[3], 335.55 K	0.0254
[3], 337.95 K	0.0255
[3], 338.35 K	0.0258
[3], 340.45 K	0.026
[3], 343.15 K	0.0263
[3], 345.15 K	0.0265
[3], 347.15 K	0.0266
[3], 349.15 K	0.0267
[3], 353.05 K	0.027

CCCCCCCCCCCCCCCC[N+](C)(C)C.[Br-] [N,N,N-trimethyl-1-hexadecanaminium bromide]
Settings	Normal melting temperature [°C]
[1]	247.00

CCCCCCCCCC[N+](CC)(CC)CCCCCCCCCC.[Br-] [didecyldiethylammonium bromide]
Settings	Normal melting temperature [°C]
[1]	45.00

CCCCCCCCCCCC[N+](CC)(CC)CCCCCCCCCCCC.[Br-] [didodecyldiethylammonium bromide]
Settings	Normal melting temperature [°C]
[1]	52.20

CCCCCCCCCCCCCCCC[N+](CC)(CC)CCCCCCCCCCCCCCCC.[Br-] [diethyldihexadecylammonium bromide]
Settings	Normal melting temperature [°C]
[1]	73.80

CCCCCCCCCCCC[N+](C)(C)C.[Br-] [dodecyltrimethylammonium bromide]
Settings	Normal melting temperature [°C]
[1]	265.00
